Several values for one entry are separate records, joined by “and”; a condition that tells them apart may be missing. Equal entries are not always repeated.
Test system: Staphylococcus aureus biofilm (ATCC 29213)
Test: MBEC P&G assay: eradication of an established (preformed) biofilm
Assay type: cell-based
Conditions: for Log Reduction (Log R): vs. GC (growth control)
Method: The effectiveness of tri-calcium phosphate granules coated with a matrix composition according to embodiments of the invention in eradicating established biofilm was measured using the MBEC™ (Minimum Biofilm Eradication Concentration) Physiology and Genetics Assay.
MBEC™ Test Method Overview: MBEC™ test method specifies the operational parameters required to grow and treat different bacterial biofilms in a high throughput screening assay. The assay device consists of a plastic lid with ninety-six (96) pegs and a corresponding receiver plate with ninety-six (96) individual wells that have a maximum 200 μL working volume. Biofilm is established on the pegs in a batch culture based model (i.e., no flow of nutrients into or out of an individual well) with gentle mixing. The established biofilm is transferred to a new receiver plate for disinfectant efficacy testing.
Test Organisms: Staphylococcus aureus (an osteomyelitis-related strains); source: ATCC 29213; Dilution/Challenge Media: 1,000×TSB+10% human serum 24 hrs; Growth Media/agar: Tryptic Soy Broth/Tryptic Soy agar for 24 hrs Aerobic cond.
TEST METHOD overview: The experimental process for high-throughput antimicrobial susceptibility testing using the hydroxyapatite coated MBEC™ P&G assay. This standard protocol was broken into a series of small steps, each of which is detailed in the sections below.
1. Culture/Inoculum Preparation:
Using a cryogenic stock (at −70° C.), a first sub-culture of Staphylococcus aureus was streaked out on OSA (organism specific agar). The plates were incubated at appropriate growth conditions for 20±2.0 hours and further stored at 4° C.
A second sub-culture taken from the first sub-culture was streaked out on OSA. The plates were incubated at appropriate growth conditions for 20±2.0 hours. An isolated colony from the second sub-culture was aseptically removed from the OSA plate and inoculated into 50 mL of sterile bacterial liquid growth broth, followed by incubation appropriate growth conditions for 20±2.0 hours (at 150 rpm).
The inoculum was adjusted to an approximate cell density of 10^6 CFU/mL by diluting in OSB according to table 1.
Samples (100 μL) of the diluted organism were used for an inoculum check by serially diluting and spot plating on OSA in triplicate.
Preparation of the Challenge Plate:
150 μL of the remaining diluted organism were placed in each of the corresponding wells of an MBEC™ P&G device except the sterility controls (Table 5). The device was placed on an orbital shaker (110 RPM) in a humidified incubator at 37±1° C.
Antimicrobial Challenge for Preformed Biofilm:
The biofilm formed on the lid of the MBEC device was rinsed by dipping the lid into saline (˜30 seconds) to remove planktonic cells. The lid was then put on top of the challenge plate and incubated on a rotary shaker at 110 rpm at 35±2° C. for 24±2 hours.
After incubation (specified above), planktonic cells were rinsed off the biofilm by dipping the lid into saline (˜20-30 seconds). The lid was then transferred to a neutralizer/recovery plate and put in a sonicator (˜30 minutes) to dislodge surviving biofilm.
Following sonication, 100 μL from each well of the MBEC™ plate, were put into the first 12 empty wells of the first row of a 96 well-micro titer plate and were further diluted by 10 fold down each of the 8 rows (10^0-10^7 dilution). 5 μL from each well were then used for spotting prepared OSA plates. The agar plates were incubated at 37±1° C. and counted after approximately 24-48 hours of incubation. The arithmetic mean of the number of colonies counted on the plates was calculated.
100 μL of the sterile neutralizer was added to each well of the recovery plate to top up the volume back to 200 μL. The refilled plate is incubated at 35±2° C. for 24±2 hours, after which the plates were analyzed using a plate reader.
The log density for one peg was calculated as follows:
LOG10 (CFU/peg)=LOG10 [(XB) (D)] where: X=mean CFU; B=volume plated (0.02 mL) and D=dilution. […]

Gentamicin [D]
Average Log10 CFU/peg recoveries (0.5 μg): 3.48 Log10 CFU/peg | Log10 CFU/peg recoveries, replicates 1-3 (0.5 μg): 3.90 Log10 CFU/peg and 2.90 Log10 CFU/peg and 3.64 Log10 CFU/peg | Average Log10 CFU/peg recoveries (1.0 μg): 3.21 Log10 CFU/peg | Log10 CFU/peg recoveries, replicates 1-3 (1.0 μg): 4.72 Log10 CFU/peg and 2.60 Log10 CFU/peg and 2.30 Log10 CFU/peg | Average Log10 CFU/peg recoveries (2.0 μg): 1.69 Log10 CFU/peg | Log10 CFU/peg recoveries, replicates 1-3 (2.0 μg): 2.30 Log10 CFU/peg and 0.00 Log10 CFU/peg and 2.78 Log10 CFU/peg | Average Log10 CFU/peg recoveries (4.0 μg): 1.31 Log10 CFU/peg | Log10 CFU/peg recoveries, replicates 1-3 (4.0 μg): 1.61 Log10 CFU/peg and 2.30 Log10 CFU/peg and 0.00 Log10 CFU/peg | Average Log10 CFU/peg recoveries (8.0 μg): 0.00 Log10 CFU/peg | Log10 CFU/peg recoveries, replicates 1-3 (8.0 μg): 0.00 Log10 CFU/peg | Average Log10 CFU/peg recoveries (16 μg): 0.00 Log10 CFU/peg | Log10 CFU/peg recoveries, replicates 1-3 (16 μg): 0.00 Log10 CFU/peg | Average Log10 CFU/peg recoveries (32 μg): 0.00 Log10 CFU/peg | Log10 CFU/peg recoveries, replicates 1-3 (32 μg): 0.00 Log10 CFU/peg | Log Reduction (Log R) (0.5 μg): 1.11 LOG10 | Log Reduction (Log R) (1.0 μg): 1.38 LOG10 | Log Reduction (Log R) (2.0 μg): 2.90 LOG10 | Log Reduction (Log R) (4.0 μg): 3.29 LOG10 | Log Reduction (Log R) (8.0 μg): 4.59 LOG10 | Log Reduction (Log R) (16 μg): 4.59 LOG10 | Log Reduction (Log R) (32 μg): 4.59 LOG10

— patent US10758639B2, “Methods for the treatment of peri-implantitis” (POLYPID LTD., priority 2014, dated 2020)
